In the supplement of paper PMC10331698:
± gives the standard deviation of the averaged measurements.

What was measured:
Assay in all cases: level (log10 ratio to DMSO vehicle control); higher = higher biomarker level / cell amount than vehicle control
Conditions in all cases: in DMSO
[1] = compound: O=S(=O)(O)C(F)(F)C(F)(F)C(F)(F)C(F)(F)F [Perfluorobutanesulfonic acid]
Outline: (§1)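 BioMAP Diversity Plus human primary cell co-cultures got test substances 1 h before cytokine or activator stimulation, then 24 h incubation (MyoF 48 h; BT 72 h, or 6 d for secreted IgG), one well per endpoint, final DMSO < 0.1%. Biomarkers were read by ELISA, cell amount by sulforhodamine B, and PBMC viability/proliferation by Alamar Blue. Each well was divided by the mean of 8 same-plate DMSO wells and log10 transformed. Duplicate blinded samples were averaged.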

[2] = compound: Cn1cnc([N+](=O)[O-])c1Sc1ncnc2[nH]cnc12 [Azathioprine]
Outline: as §1

[3] = compound: O=C(O)C(F)(F)OC(F)(F)C(F)(F)OC(F)(F)C(F)(F)C(F)(F)C(F)(F)F [Perfluoro-3,6-dioxadecanoic acid]
Outline: as §1

[4] = compound: NC(=O)C(F)(F)C(F)(F)C(F)(F)C(F)(F)C(F)(F)C(F)(F)C(F)(F)F [Perfluorooctanamide]
Outline: as §1

[5] = compound: OCC(F)(F)C(F)(F)C(F)(F)F [1H,1H-Heptafluorobutanol]
Outline: as §1

[6] = compound: O=C(O)C(F)(F)C(F)(F)C(F)(F)C(F)(F)C(F)(F)C(F)(F)C(F)(F)C(F)(F)Cl [9-Chloro-perfluorononanoic acid]
Outline: as §1

[7] = compound: CCCCCCCCC(F)(F)C(F)(F)C(F)(F)C(F)(F)C(F)(F)C(F)(F)F [1-(Perfluorohexyl)octane]
Outline: as §1

| Test System | level (log10) ([1]; 6700 nM) | level (log10) ([1]; 20000 nM) | level (log10) ([1]; 60000 nM) | level (log10) ([2]; 1400 nM) | level (log10) ([2]; 4200 nM) | level (log10) ([2]; 13000 nM) | level (log10) ([2]; 38000 nM) | level (log10) ([3]; 6700 nM) | level (log10) ([3]; 20000 nM) | level (log10) ([3]; 60000 nM) | level (log10) ([4]; 6700 nM) | level (log10) ([4]; 20000 nM) | level (log10) ([4]; 60000 nM) | level (log10) ([5]; 6700 nM) | level (log10) ([5]; 20000 nM) | level (log10) ([5]; 60000 nM) | level (log10) ([6]; 6700 nM) | level (log10) ([6]; 20000 nM) | level (log10) ([7]; 6700 nM) | level (log10) ([7]; 20000 nM) |
| --- | --- | --- | --- | --- | --- | --- | --- | --- | --- | --- | --- | --- | --- | --- | --- | --- | --- | --- | --- | --- |
| KF3CT:SRB | 0.002 ± 0.0042 | 0 ± 0.0014 | 0 ± 0.0014 | 0.003 ± 0.0057 | 0.0015 ± 0.0064 | 0.001 ± 0.0057 | -0.0065 ± 0.0021 | -0.0175 ± 0.011 | -0.022 ± 0.013 | -0.013 ± 0.031 | -0.0065 ± 0.005 | -0.0075 ± 0.0035 | 0 ± 0.0028 | 0.0015 ± 0.015 | 0.0005 ± 0.00071 | 0.0095 ± 0.0021 | -0.0135 ± 0.0035 | -0.0145 ± 0.012 | -0.0025 ± 0.023 | -0.0115 ± 0.015 |
| KF3CT:MMP-9 | -0.0115 ± 0.0021 | -0.008 ± 0.013 | -0.0145 ± 0.005 | -0.008 ± 0.011 | 0.0015 ± 0.0064 | -0.0255 ± 0.0064 | -0.0375 ± 0.011 | -0.012 ± 0.014 | 0.005 ± 0.034 | 0.0215 ± 0.0078 | -0.011 ± 0.017 | -0.0265 ± 0.0092 | -0.0905 ± 0.0021 | -0.013 ± 0.0071 | -0.0065 ± 0.005 | -0.01 ± 0.0028 | -0.0345 ± 0.0021 | -0.106 ± 0.0071 | -0.006 ± 0.024 | 0.0075 ± 0.029 |
| lMphg:CD62E/E-Selectin | 0.0405 ± 0.0035 | 0.041 ± 0.044 | 0.0215 ± 0.046 | -0.037 ± 0.045 | -0.031 ± 0.048 | -0.064 ± 0.0085 | -0.148 ± 0.051 | 0.0095 ± 0.016 | -0.0035 ± 0.037 | 0.0135 ± 0.015 | 0.022 ± 0.048 | 0.0285 ± 0.043 | -0.0165 ± 0.07 | -0.0085 ± 0.021 | 0.001 ± 0.017 | 0 ± 0.045 | 0.01 ± 0.0099 | 0.017 ± 0.0042 | 0.0205 ± 0.012 | -0.0145 ± 0.03 |
| MyoF:TIMP-1 | 0.012 ± 0.014 | 0.009 ± 0.0085 | 0.0205 ± 0.00071 | -0.0225 ± 0.04 | -0.056 ± 0.057 | 0.013 ± 0.068 | 0.016 ± 0.071 | 0.044 ± 0.03 | 0.174 ± 0.031 | 0.164 ± 0.0014 | -0.016 ± 0.014 | 0.0075 ± 0.012 | -0.0375 ± 0.0021 | 0.0115 ± 0.028 | 0.014 ± 0.035 | 0.025 ± 0.03 | -0.0445 ± 0.063 | -0.006 ± 0.057 | -0.0265 ± 0.015 | -0.0465 ± 0.023 |
| HDF3CGF:M-CSF | 0.011 ± 0.0085 | 0.0045 ± 0.0035 | 0.0025 ± 0.005 | -0.0255 ± 0.039 | -0.018 ± 0.042 | -0.0595 ± 0.011 | -0.184 ± 0.025 | -0.0555 ± 0.067 | -0.065 ± 0.011 | -0.152 ± 0.0078 | 0.001 ± 0.023 | 0.0055 ± 0.00071 | 0.027 ± 0.0014 | 0.0045 ± 0.035 | 0.0335 ± 0.00071 | 0.004 ± 0.02 | -0.058 ± 0.041 | -0.089 ± 0.025 | -0.022 ± 0.031 | -0.0025 ± 0.021 |
| 3C:CCL2/MCP-1 | 0.0025 ± 0.05 | 0.0015 ± 0.021 | 0.0355 ± 0.043 | 0.0095 ± 0.0064 | -0.006 | 0.009 ± 0.0014 | -0.0165 ± 0.015 | 0.002 ± 0.0099 | 0.013 ± 0.0057 | 0.0195 ± 0.023 | 0.0085 ± 0.028 | -0.01 ± 0.0014 | 0.0105 ± 0.054 | -0.001 | -0.0055 ± 0.012 | 0.007 ± 0.028 | 0.015 ± 0.054 | -0.0065 ± 0.037 | -0.008 ± 0.0014 | 0.0205 ± 0.023 |
| HDF3CGF:CD54/ICAM-1 | -0.009 ± 0.016 | -0.0145 ± 0.0021 | 0.003 ± 0.011 | -0.0065 ± 0.011 | 0.0045 ± 0.0078 | 0.0015 ± 0.019 | -0.0195 ± 0.012 | -0.0025 ± 0.021 | -0.0125 ± 0.026 | -0.038 ± 0.04 | -0.009 | 0.002 ± 0.0085 | -0.02 ± 0.016 | -0.008 ± 0.0042 | 0.0005 ± 0.0021 | 0.0045 ± 0.0092 | -0.077 ± 0.017 | -0.112 ± 0.014 | 0.0025 ± 0.005 | -0.0055 ± 0.037 |
| KF3CT:TIMP-2 | -0.0265 ± 0.005 | -0.0045 ± 0.029 | -0.0135 ± 0.022 | -0.041 ± 0.013 | 0 ± 0.021 | 0.0385 ± 0.0078 | 0.0585 ± 0.011 | -0.038 ± 0.0099 | -0.0255 ± 0.043 | -0.03 ± 0.024 | -0.045 ± 0.0085 | -0.0245 ± 0.04 | -0.033 ± 0.011 | 0.0155 ± 0.011 | 0.002 ± 0.0057 | -0.007 ± 0.0042 | -0.0205 ± 0.0021 | -0.0015 ± 0.0021 | 0.004 ± 0.02 | -0.016 ± 0.011 |
| MyoF:bFGF | 0.0065 ± 0.013 | 0.0105 ± 0.018 | -0.0065 ± 0.0064 | 0.001 ± 0.016 | 0.003 ± 0.0071 | -0.015 ± 0.016 | 0.01 ± 0.0071 | 0.013 ± 0.02 | 0.003 ± 0.0057 | 0.02 ± 0.011 | -0.005 ± 0.0014 | -0.0055 ± 0.015 | 0.007 ± 0.0014 | -0.003 ± 0.0042 | 0.0045 ± 0.0078 | 0.01 ± 0.017 | -0.003 ± 0.023 | 0.0085 ± 0.011 | -0.0025 ± 0.012 | 0.0045 ± 0.005 |
| CASM3C:HLA-DR | -0.0085 ± 0.0035 | -0.0075 ± 0.00071 | -0.0025 ± 0.0078 | -0.0165 ± 0.0021 | -0.0115 ± 0.026 | -0.0405 ± 0.011 | -0.055 ± 0.031 | 0.002 ± 0.03 | 0.0015 ± 0.011 | 0.0245 ± 0.026 | 0.003 ± 0.041 | 0.0125 ± 0.0092 | 0.0005 ± 0.011 | 0.015 ± 0.0057 | -0.004 ± 0.0028 | 0.011 ± 0.0028 | 0.0085 ± 0.0035 | 0.0015 ± 0.012 | -0.0155 ± 0.015 | -0.0125 ± 0.005 |
| BE3C:SRB | 0.001 | -0.004 ± 0.0028 | -0.003 ± 0.0014 | 0.013 ± 0.016 | -0.005 | -0.0095 ± 0.0078 | -0.0045 ± 0.0092 | -0.0015 ± 0.0064 | -0.0095 ± 0.013 | -0.0435 ± 0.022 | -0.005 ± 0.0057 | -0.003 ± 0.0057 | 0.0005 ± 0.0035 | -0.0115 ± 0.0078 | -0.0045 ± 0.011 | -0.0005 ± 0.0064 | -0.0045 ± 0.0064 | -0.0805 ± 0.005 | -0.0005 ± 0.0021 | 0.002 ± 0.0028 |
| HDF3CGF:MMP-1 | 0.0085 ± 0.011 | 0.002 ± 0.013 | -0.0165 ± 0.036 | 0.0005 ± 0.0021 | 0.02 ± 0.021 | 0.0275 ± 0.022 | 0.0415 ± 0.0021 | -0.023 ± 0.011 | -0.0485 ± 0.013 | -0.068 ± 0.011 | 0.0175 ± 0.00071 | 0.003 ± 0.0071 | -0.0025 ± 0.028 | 0.0025 ± 0.018 | -0.0035 ± 0.0021 | -0.016 ± 0.059 | -0.0875 ± 0.005 | -0.118 ± 0.011 | -0.0395 ± 0.012 | -0.014 ± 0.023 |
| HDF3CGF:PAI-I | -0.017 ± 0.034 | 0.007 ± 0.045 | -0.0075 ± 0.03 | 0.022 ± 0.054 | -0.015 ± 0.037 | -0.0545 ± 0.04 | -0.198 ± 0.021 | 0.0225 ± 0.013 | 0.0375 ± 0.0021 | 0.045 ± 0.024 | -0.016 ± 0.013 | -0.03 ± 0.0099 | -0.0235 ± 0.0078 | -0.037 ± 0.037 | -0.0045 ± 0.025 | -0.054 ± 0.083 | 0.0685 ± 0.033 | 0.0245 ± 0.015 | 0.0005 ± 0.016 | 0.0165 ± 0.0021 |
